For 5 compounds, Ki and melting point results are on record in patent US20060173048A1, “Imidazole derivatives” (priority 2005, published 2006).

Series [1] addresses T1, rat mGlu2 receptor (Rattus norvegicus, UniProt P31421).
T1 construct: expressed in transfected cells; host or cells: CHO cells, stably transfected (G-418 selection); membranes were prepared from them
Kind of series: [3H]-LY354740 binding on mGlu2 transfected CHO cell membranes. The settings on record: displacement of 10 nM [3H]-LY354740, membranes of CHO cells transfected with rat mGlu2, room temperature, 1 hour. From the text: [^3H]-LY354740 Binding on mGlu2 Transfected CHO Cell Membranes. Transfection and Cell Culture
cDNA encoding the rat mGlu2 receptor protein in pBluescript II was subcloned into the eukaryotic expression vector pcDNA I-amp from Invitrogen Ltd (Paisley, UK). This vector construct (pcD1mGR^2) was co-transfected with a psvNeo plasmid encoding the gene for neomycin resistance, into CHO cells by a modified calcium phosphate method described by Chen & Okayama (1988). The cells were maintained in Dulbecco's Modified Eagle medium with reduced L-glutamine (2 mM final concentration) and 10% dialysed foetal calf serum from Gibco-Invitrogen (Carlsbad, Calif., USA). Selection was made in the presence of G-418 (1000 ug/ml final) and […]. Clones were identified by reverse transcription of 5 μg total RNA, followed by PCR using mGlu2 receptor specific primers 5′-[…]-3′ and 540 -[…]-3′ in 60 mM Tris HCl (pH 10), 15 mM (NH4)2SO4, 2 mM MgCl2, 25 units/ml Taq Polymerase with 30 cycles annealing at 60° C. for 1 min., extention at 72° C. for 30 s, and 1 min. 95° C. denaturation.
Cells, cultured as above, were harvested and washed three times with cold PBS and frozen at −80° C. The pellet was resuspended in cold 20 mM HEPES-NaOH buffer containing 10 mM EDTA (pH 7.4), and homogenised with a polytron (Kinematica, AG, Littau, Switzerland) for 10 s at 10 000 rpm. After centrifugation for 30 min. at 4° C., the pellet was washed once with the same buffer, and once with cold 20 mM HEPES-NaOH buffer containing 0.1 mM EDTA, (pH 7.4). Protein content was measured using the micro BCA method from Pierce-Perbio (Rockford, Ill., USA) using bovine serum albumin as standard.
After thawing, the membranes were resuspended in cold 50 mM Tris-HCl buffer containing 2 mM MgCl2 (pH 7) (binding buffer). The final concentration of the membranes in the assays was 25 μg protein/ml. Inhibition experiments were performed with membranes incubated with 10 nM [^3H]-LY354740 at room temperature, for 1 hour, in presence of various concentrations of the compound to be tested. Following the incubations, membranes were filtered onto Whatmann GF/B glass fiber filters and washed 5 times with cold binding buffer. Non specific binding was measured in the presence of 10 μM DCG IV. After transfer of the filters into plastic vials containing 10 ml of Ultima-gold scintillation fluid from Perkin-Elmer (Boston, Mass., USA), the radioactivity was measured by liquid scintillation in a Tri-Carb 2500 TR counter (Packard, Zürich, Switzerland).
The inhibition curves were fitted with a four parameter logistic equation giving IC50 values, and Hill coefficients.

T1 sequence (P31421 19-872): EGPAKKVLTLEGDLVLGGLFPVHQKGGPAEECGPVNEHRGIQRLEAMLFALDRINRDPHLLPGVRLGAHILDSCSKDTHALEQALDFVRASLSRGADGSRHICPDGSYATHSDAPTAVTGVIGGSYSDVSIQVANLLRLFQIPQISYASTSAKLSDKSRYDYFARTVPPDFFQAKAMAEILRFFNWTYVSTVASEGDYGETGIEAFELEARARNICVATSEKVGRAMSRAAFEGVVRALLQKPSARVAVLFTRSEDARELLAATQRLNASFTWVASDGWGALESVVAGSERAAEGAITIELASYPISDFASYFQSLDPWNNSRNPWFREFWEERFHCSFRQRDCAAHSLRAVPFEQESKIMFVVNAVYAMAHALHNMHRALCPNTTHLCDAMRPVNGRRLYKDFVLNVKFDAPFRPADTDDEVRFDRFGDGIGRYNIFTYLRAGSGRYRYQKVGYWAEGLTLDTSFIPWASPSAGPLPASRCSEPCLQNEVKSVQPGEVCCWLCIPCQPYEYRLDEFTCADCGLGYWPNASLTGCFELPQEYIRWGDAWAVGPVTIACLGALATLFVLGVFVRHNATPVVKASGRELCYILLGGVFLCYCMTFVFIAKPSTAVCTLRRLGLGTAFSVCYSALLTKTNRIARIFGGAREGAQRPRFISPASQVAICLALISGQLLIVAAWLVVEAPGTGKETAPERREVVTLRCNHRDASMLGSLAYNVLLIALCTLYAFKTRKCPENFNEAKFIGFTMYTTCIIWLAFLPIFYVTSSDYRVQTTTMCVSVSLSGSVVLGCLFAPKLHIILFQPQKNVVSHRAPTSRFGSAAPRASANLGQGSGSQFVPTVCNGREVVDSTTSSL

`C=CCn1c(-c2c(Cl)cccc2Cl)nc(-c2ccncc2)c1-c1ccc(C)cc1` [Example 19, 4-[1-Allyl-2-(2,6-dichloro-phenyl)-5-(4-methyl-phenyl)-1H-imidazol-4-yl]-pyridine] came in with a melting point of 147 to 149 °C. In series [1], this compound displayed a Ki of 34 nM.

The compound `Clc1ccc(-c2c(-c3ccncc3)nc(-c3c(Cl)cccc3Cl)n2C2CC2)cc1` [Example 27, 4-[5-(4-Chloro-phenyl)-1-cyclopropyl-2-(2,6-dichloro-phenyl)-1H-imidazol-4-yl]-pyridine] gave a melting point of 210 to 211 °C. Affinity in series [1] was put at a Ki of 21 nM.

With `CCCC(CCC)c1nc(-c2ccncc2)c(-c2ccc(Cl)cc2)n1CC` [Example 37, 4-[5-(4-Chloro-phenyl)-1-ethyl-2-(1-propyl-butyl)-1H-imidazol-4-yl]-pyridine], the melting point was 152 to 155 °C. In series [1], this compound showed an inhibition constant Ki of 49 nM.

`CCn1c(C(O)(C2CC2)C2CC2)nc(-c2ccncc2)c1-c1ccc(Cl)cc1` [Example 43, [5-(4-Chloro-phenyl)-1-ethyl-4-pyridin-4-yl-1H-imidazol-2-yl]-dicyclopropyl-methanol] registered a melting point of 185 to 188 °C. Also, in series [1], the affinity corresponds to a Ki of 111 nM.

`CCn1c(C(O)(C2CCCCC2)C2CCCCC2)nc(-c2ccncc2)c1-c1ccc(Cl)cc1` [Example 47, [5-(4-Chloro-phenyl)-1-ethyl-4-pyridin-4-yl-1H-imidazol-2-yl]-dicyclohexyl-methanol] yielded a melting point of 221 to 224 °C. This compound also yielded an inhibition constant (Ki) in series [1] of 18 nM.
